“Also recorded” adds a separate entry of the source. Non-standard residues stand in square brackets, D forms with d. Residues, ends and D or L forms follow the SMILES beside them. *: point of attachment. NBD = O=[N+]([O-])c1ccc(*)c2nonc12; Nle = CCCC[C@H](N)C(=O)O; Ahx = NCCCCCC(=O)O

Data set [1] is described as follows: Chemical stability on storage in phosphate buffered saline at 37 °C (HPLC). The settings on record: 1 mg mL–1 in PBS, day 0 vs day 3, HPLC, detection at 380 nm. The class given is physicochemical. The protocol: This modification is particularly of relevance due to the expected in vivo inflammatory oxidative environment within an infected pneumonic lung due to infiltrating host inflammatory cells such as neutrophils,[13] and therefore all subsequent modifications incorporated Nle in place of Met.
HPLC chromatograms (gradient acetonitrile + 0.1% formic acid/water + 0.1% formic acid from 5/95 to 95/5 over 10 min, then isocratic for 4 min; detection at 380 nm). UBI-2 (1 mg mL^–1 in PBS, upper panels) and UBI-3 (1 mg mL^–1 in PBS, lower panels) at (A) day 0 and (B) day 3 after incubation at 37 °C.

The test system of data set [2] is methicillin-sensitive Staphylococcus aureus (MSSA), Pseudomonas aeruginosa and Klebsiella pneumoniae. The experiment in a line: Confocal bacterial labelling, UBI-2 vs UBI-3 on a panel of bacteria. The class given is cell-based. The conditions noted are these: fluorescence normalised to UBI-2, mean ± SEM, n ≥ 3. The protocol: Fig. 3 UBI-3 retains specificity and sensitivity for bacterial labelling. […] Panels show bacteria labelled with either UBI-2 or UBI-3 with quantification of fluorescence (values normalised to UBI-2) (Bars represent mean, error bars represent standard error of mean, n ≥ 3, ns = not significant, scale bar = 10 μm). (B) Quantification from confocal images of UBI-3 (10 μM) imaging a panel of bacteria (statistical analyses shown compared to unlabelled bacteria, n ≥ 3 for each bacteria, *** = p < 0.001). […] [MRSA: methicillin-resistant Staphylococcus aureus, MSSA: methicillin-sensitive Staphylococcus aureus]. […]
(§1) Confocal Analysis and Fluorescence Quantification: 8-Well Lab-Tek II Confocal Chambers (VWR, PA, USA) were coated in fibronectin (for neutrophil experiments) or poly-d-lysine (for bacteria) at 37 °C for 20 minutes, then washed in PBS prior to bacterial innoculation. […] Exposure to 488 nm light was limited to 5% of the maximum laser power in order to minimize toxicity. ‘Green’ fluorescence (for FAM and NBD) was excited with a dedicated 488 nm line and emitted light detected with meta detector (500-530 nM).
(§2) Syto nuclear and dyes were excited with a dedicated 543 nm line, and emitted light detected with meta detector (570-610 nM). Fields of view were chosen based on the counterstain and at least three fields of view were recorded for each condition. […]

For a further data set, the system named is P. aeruginosa. The data set can be described thus: Confocal labelling of bacteria in the presence of human ARDS BALF. The class given is cell-based. The conditions noted are these: 10 μM, n = 3 PBS, n = 5 ARDS, p < 0.001.
Description: To determine the ability of UBI-3 to image bacteria in the continued presence of a complex inflammatory environment, bacteria were labelled with UBI-3 in the presence of broncho-alveolar lavage fluid (BALF) retrieved from ventilated ICU patients with Acute Respiratory Distress Syndrome (ARDS). ARDS BALF was utilised as ARDS is a severe life threatening pulmonary syndrome, characterized by a massive proteolytic and oxidative inflammatory environment within the distal alveolar region.[14] […] To design out susceptible amino acid cleavage points, a number of modifications were made (Table 1) and the functional consequences assessed. […]
as §1, §2

With `CCCC[C@H](NC(=O)[C@H](CCCNC(=N)N)NC(=O)[C@H](CCCNC(=N)N)NC(=O)[C@H](CCCCN)NC(=O)[C@H](C)NC(=O)[C@H](CCCNC(=N)N)NC(=O)CNC(=O)[C@@H](NC(=O)CCCCCNc1ccc([N+](=O)[O-])c2nonc12)[C@@H](C)O)C(=O)N[C@@H](CCC(N)=O)C(=O)N[C@@H](Cc1ccc(O)cc1)C(=O)N[C@@H](CC(N)=O)C(=O)N[C@@H](CCCNC(=N)N)C(=O)N[C@@H](CCCNC(=N)N)C(N)=O` [UBI-3] ({NBD-Ahx}-TGRAKRR[Nle]QYNRR-NH2), the “chemical stability in PBS at 37 °C” value in data set [1] was “prevented by substitution of the Met to Nle”. In data set [2], the “bacterial labelling, Met vs Nle variant” value was “retained bacterial labelling; also recorded: same fluorescence intensity”. Moreover, in the data set on P. aeruginosa, the “fluorescent labelling intensity of bacteria in ARDS BALF compared to PBS” value is reported as “significant reduction in the fluorescent labelling intensity; also recorded: significantly reduced intensity when compared to PBS”.

The values are drawn from publication PMC5947527 (Chemical Science, 2015).
